# Reference: PubChem BioAssay (NCI)
#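 Method: 48-hour compound exposure of cells in 96-well plates, five concentrations, linear interpolation of endpoints. At the GI50, growth is halved. TGI marks complete inhibition of growth.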
# Legend:
# Experiment in all cases: growth of human tumour cells (NCI), 48 h
# [1] = tested on: HCT-116 colon
# [2] = tested on: U251 CNS
# [3] = tested on: DU-145 prostate
# [4] = tested on: 786-0 renal
# [5] = tested on: MDA-MB-231 breast
# [6] = tested on: NCI/ADR-RES ovarian
# [7] = tested on: HOP-62 NSCLC
# [8] = tested on: TK-10 renal
# [9] = tested on: BT-549 breast
# [10] = tested on: CAKI-1 renal
# [11] = tested on: HCC-2998 colon
# [12] = tested on: T-47D breast
# [13] = tested on: RPMI-8226 leukemia
# [14] = tested on: HOP-92 NSCLC
# [15] = tested on: SK-MEL-2 melanoma
# [16] = tested on: KM12 colon
# [17] = tested on: NCI-H23 lung
# [18] = tested on: SK-OV-3 ovarian
# [19] = tested on: ACHN renal
# [20] = tested on: HT29 colon
# [21] = tested on: COLO 205 colon
# [22] = tested on: MCF7 breast
# [23] = tested on: K-562 leukemia
# [24] = tested on: MDA-MB-435
# [25] = tested on: MOLT-4 leukemia
# [26] = tested on: IGROV1 ovarian
# [27] = tested on: LOX IMVI melanoma
# [28] = tested on: MALME-3M melanoma
# [29] = tested on: SR leukemia
# [30] = tested on: UACC-62 melanoma
# [31] = tested on: OVCAR-4 ovarian
# [32] = tested on: SF-295 CNS
# [33] = tested on: SNB-75 CNS
# [34] = tested on: SF-268 CNS
# [35] = tested on: UO-31 renal
# [36] = tested on: NCI-H522 lung
# [37] = tested on: M14 melanoma
# [38] = tested on: HL-60(TB) leukemia
# [39] = tested on: SNB-19 CNS
# [40] = tested on: OVCAR-3 ovarian
# [41] = tested on: SK-MEL-28 melanoma
# [42] = tested on: SF-539 CNS
# [43] = tested on: EKVX NSCLC
# [44] = tested on: UACC-257 melanoma
# [45] = tested on: NCI-H226 lung
# [46] = tested on: CCRF-CEM leukemia
# [47] = tested on: OVCAR-5 ovarian
# [48] = tested on: RXF 393 renal
# [49] = tested on: A498 renal
# [50] = tested on: SK-MEL-5 melanoma
# [51] = tested on: PC-3 prostate
# [52] = tested on: A549 NSCLC
# [53] = tested on: SW-620 colon
# [54] = tested on: HS 578T breast
# [55] = tested on: OVCAR-8 ovarian
# [56] = tested on: NCI-H460 lung
# [57] = tested on: HCT-15 colon
# [58] = tested on: SN12C renal
structure (smiles),measurement,setting,value
CCCCc1n(Cc2ccc3ccccc3n2)cc[n+]1Cc1ccc2ccccc2c1,GI50,[1],639 nM
same,TGI,[1],2110 nM
same,GI50,[2],661 nM
same,TGI,[2],2060 nM
same,GI50,[3],1440 nM
same,TGI,[3],7980 nM
same,GI50,[4],1600 nM
same,TGI,[4],3890 nM
same,GI50,[5],635 nM
same,TGI,[5],2040 nM
same,GI50,[6],24200 nM
same,TGI,[6],> 100000 nM
same,GI50,[7],1720 nM
same,TGI,[7],5250 nM
same,GI50,[8],1490 nM
same,TGI,[8],3690 nM
same,GI50,[9],648 nM
same,TGI,[9],1740 nM
same,GI50,[10],1620 nM
same,TGI,[10],3640 nM
same,GI50,[11],641 nM
same,TGI,[11],2010 nM
same,GI50,[12],337 nM
same,TGI,[12],2570 nM
same,GI50,[13],265 nM
same,TGI,[13],1360 nM
same,GI50,[14],220 nM
same,TGI,[14],1110 nM
same,GI50,[15],977 nM
same,TGI,[15],2640 nM
same,GI50,[16],715 nM
same,TGI,[16],2110 nM
same,GI50,[17],508 nM
same,TGI,[17],3980 nM
same,GI50,[18],1470 nM
same,TGI,[18],4330 nM
same,GI50,[19],2890 nM
same,TGI,[19],8800 nM
same,GI50,[20],592 nM
same,TGI,[20],2850 nM
same,GI50,[21],502 nM
same,TGI,[21],1790 nM
same,GI50,[22],690 nM
same,TGI,[22],2270 nM
same,GI50,[23],359 nM
same,TGI,[23],2360 nM
same,GI50,[24],661 nM
same,TGI,[24],1900 nM
same,GI50,[25],1060 nM
same,TGI,[25],3610 nM
same,GI50,[26],731 nM
same,TGI,[26],2380 nM
same,GI50,[27],736 nM
same,TGI,[27],1950 nM
same,GI50,[28],643 nM
same,TGI,[28],2210 nM
same,GI50,[29],456 nM
same,TGI,[29],1950 nM
same,GI50,[30],579 nM
same,TGI,[30],1860 nM
same,GI50,[31],262 nM
same,TGI,[31],1630 nM
same,GI50,[32],1370 nM
same,TGI,[32],4400 nM
same,GI50,[33],289 nM
same,TGI,[33],1740 nM
same,GI50,[34],984 nM
same,TGI,[34],2920 nM
same,GI50,[35],3220 nM
same,TGI,[35],13600 nM
same,GI50,[36],580 nM
same,TGI,[36],2180 nM
same,GI50,[37],769 nM
same,TGI,[37],2450 nM
same,GI50,[38],251 nM
same,TGI,[38],755 nM
same,GI50,[39],605 nM
same,TGI,[39],2120 nM
same,GI50,[40],541 nM
same,TGI,[40],2030 nM
same,GI50,[41],798 nM
same,TGI,[41],2590 nM
same,GI50,[42],916 nM
same,TGI,[42],3050 nM
same,GI50,[43],1400 nM
same,TGI,[43],11800 nM
same,GI50,[44],438 nM
same,TGI,[44],1620 nM
same,GI50,[45],1000 nM
same,TGI,[45],6120 nM
same,GI50,[46],1040 nM
same,TGI,[46],4610 nM
same,GI50,[47],1540 nM
same,TGI,[47],8480 nM
same,GI50,[48],1220 nM
same,TGI,[48],3160 nM
same,GI50,[49],1180 nM
same,TGI,[49],4450 nM
same,GI50,[50],559 nM
same,TGI,[50],1330 nM
same,GI50,[51],786 nM
same,TGI,[51],2500 nM
same,GI50,[52],1690 nM
same,TGI,[52],11000 nM
same,GI50,[53],1310 nM
same,TGI,[53],4750 nM
same,GI50,[54],1330 nM
same,TGI,[54],4070 nM
same,GI50,[55],1030 nM
same,TGI,[55],3170 nM
same,GI50,[56],917 nM
same,TGI,[56],2950 nM
same,GI50,[57],5070 nM
same,TGI,[57],18100 nM
same,GI50,[58],685 nM
same,TGI,[58],2210 nM
